Patent US8846908B2, “Tricyclic carbamate JAK inhibitors” (Rigel Pharmaceuticals, Inc., priority 2008, dated 2014)

biological target: BaF3 V617F cells (Homo sapiens, UniProt O60674, V617F, cells depend on it); experiment: Proliferation assay, BaF3 V617F cells (Cell Titer-Glo); assay type: cell-based, mouse; settings: proliferation for 72 hours at 37° C., stated to show ability to inhibit JAK2 activity, read-out: IC50 (the source's name)
Description: BaF3 V617F cells are maintained and plated in RPMI with 10% FBS. Plating density for these cells is 1×10^5 cells/mL.
The cells were resuspended in a corresponding medium at a required cell density (see above). 100μ of cell suspension was added to each well of a flat bottom 96 well white plate. The compound was serially diluted in DMSO from 5 mM in 3-fold dilutions, and then diluted 1:250 in the RPMI 1640 medium containing 5% FBS and pen/strep. 100 μL of resulting 2× compound solution was added per well in duplicate and the cells were allowed to proliferate for 72 hours at 37° C.
Proliferation was measured using Cell Titer-Glo. The substrate was thawed and allowed to come to room temperature. After removal of top 100 μL of medium from each well, 100 μL of the premixed Cell Titer-Glo reagent was added to each well. The plates were mixed on an orbital shaker for three minutes to induce lysis and incubated at ambient temperature for an additional five minutes to allow the signal to equilibrate. The Luminescence was read on the Wallac Plate Reader.
The results of the ability of the compounds of the invention to inhibit JAK2 activity, when tested in the above assay, are shown in the following Table 2 wherein the level of activity (i.e., the IC50) for each compound is indicated in Table 2. The compound numbers in Table 2 refers to the compounds disclosed herein as being prepared by the methods disclosed herein.

Sequence of BaF3 V617F cells (O60674 whole entry V617F): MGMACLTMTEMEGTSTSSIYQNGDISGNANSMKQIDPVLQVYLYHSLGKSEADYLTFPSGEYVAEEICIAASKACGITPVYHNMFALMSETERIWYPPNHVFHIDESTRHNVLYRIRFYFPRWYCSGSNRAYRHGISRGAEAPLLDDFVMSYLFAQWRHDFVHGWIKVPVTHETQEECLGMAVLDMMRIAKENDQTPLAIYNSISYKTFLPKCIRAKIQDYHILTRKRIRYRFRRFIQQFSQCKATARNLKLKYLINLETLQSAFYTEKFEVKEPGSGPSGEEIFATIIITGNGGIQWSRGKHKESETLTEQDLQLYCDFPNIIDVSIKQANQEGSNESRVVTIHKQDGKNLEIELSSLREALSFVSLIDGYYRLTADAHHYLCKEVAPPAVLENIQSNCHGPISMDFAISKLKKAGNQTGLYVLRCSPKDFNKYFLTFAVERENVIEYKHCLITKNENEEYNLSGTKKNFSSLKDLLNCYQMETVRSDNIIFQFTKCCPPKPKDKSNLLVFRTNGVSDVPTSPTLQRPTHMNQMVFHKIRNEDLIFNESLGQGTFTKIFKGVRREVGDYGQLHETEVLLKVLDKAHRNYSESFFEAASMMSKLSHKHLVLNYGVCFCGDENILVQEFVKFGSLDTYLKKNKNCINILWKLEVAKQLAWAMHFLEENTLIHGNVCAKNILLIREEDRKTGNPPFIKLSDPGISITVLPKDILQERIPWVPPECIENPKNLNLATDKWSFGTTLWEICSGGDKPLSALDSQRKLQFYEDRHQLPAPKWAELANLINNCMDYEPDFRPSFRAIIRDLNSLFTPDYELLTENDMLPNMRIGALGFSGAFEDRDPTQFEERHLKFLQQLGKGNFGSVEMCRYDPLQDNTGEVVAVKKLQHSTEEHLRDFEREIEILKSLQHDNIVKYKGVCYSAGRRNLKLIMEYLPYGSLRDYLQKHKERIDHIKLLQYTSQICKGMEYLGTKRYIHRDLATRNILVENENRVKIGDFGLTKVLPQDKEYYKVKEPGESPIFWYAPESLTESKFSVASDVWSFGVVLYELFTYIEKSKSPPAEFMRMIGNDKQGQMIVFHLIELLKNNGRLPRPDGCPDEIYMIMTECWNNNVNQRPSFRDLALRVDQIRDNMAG

Row | Structure (SMILES) | GI50 [nM]
1 | CCN1C(=O)C(C)(C)Oc2ccc(Nc3nc(Nc4ccc5c(c4)[C@@H]4NC(=O)O[C@@H]4C5)ncc3Cl)cc21 [Compound 12, 5-Chloro-N4-(2,2-dimethyl-4-ethyl-3-oxo-benz[1,4]oxazin-6-yl)-N2-[(3aS,8aR)-2-oxo-3,3a,8,8a-tetrahydro-2H-indeno[1,2-d]oxazol-5-yl]-2,4-pyrimidinediamine] | 250 to 500
2 | CCCN1C(=O)COc2ccc(Nc3nc(Nc4ccc5c(c4)[C@H]4NC(=O)O[C@H]4C5)ncc3C)cc21 [Compound 6, 5-Methyl-N4-(4-propyl-3-oxo-2H-benz[1,4]oxazin-6-yl)-N2-[(3aR,8aS)-2-oxo-3,3a,8,8a-tetrahydro-2H-indeno[1,2-d]oxazol-5-yl]-2,4-pyrimidinediamine] | 250 to 500
3 | Cc1cnc(Nc2ccc3c(c2)[C@@H]2NC(=O)O[C@@H]2C3)nc1Nc1ccc(CNS(=O)(=O)C2CC2)cc1 [Compound 15, N4-[4-[[N-(Cyclopropylsulfonyl)amino]methyl]phenyl]-5-methyl-N2-[(3aS,8aR)-2-oxo-3,3a,8,8a-tetrahydro-2H-indeno[1,2-d]oxazol-5-yl]-2,4-pyrimidinediamine] | 1000 to 5000
4 | Cc1cnc(Nc2ccc3c(c2)[C@H]2NC(=O)O[C@H]2C3)nc1Nc1ccc2c(c1)N(C)C(=O)CS2 [Compound 4, 5-Methyl-N4-(4-methyl-3-oxo-2H-benz[1,4]thiazin-6-yl)-N2-[(3aR,8aS)-2-oxo-3,3a,8,8a-tetrahydro-2H-indeno[1,2-d]oxazol-5-yl]-2,4-pyrimidinediamine] | 500 to 1000
5 | CCN1C(=O)C(C)(C)Oc2ccc(Nc3nc(Nc4ccc5c(c4)[C@@H]4NC(=O)O[C@@H]4C5)ncc3C)cc21 [Compound 11, N4-(2,2-Dimethyl-4-ethyl-3-oxo-benz[1,4]oxazin-6-yl)-5-methyl-N2-[(3aS,8aR)-2-oxo-3,3a,8,8a-tetrahydro-2H-indeno[1,2-d]oxazol-5-yl]-2,4-pyrimidinediamine] | 250 to 500
6 | Cc1cnc(Nc2ccc3c(c2)[C@H]2NC(=O)O[C@H]2C3)nc1Nc1ccc2c(c1)N(C)C(=O)C(C)(C)S2 [Compound 7, 5-Methyl-N2-[(3aR,8aS)-2-oxo-3,3a,8,8a-tetrahydro-2H-indeno[1,2-d]oxazol-5-yl]-N4-(2,2,4-trimethyl-3-oxo-benz[1,4]thiazin-6-yl)-2,4-pyrimidinediamine] | < 250
7 | O=C1N[C@@H]2c3cc(Nc4ncc(Cl)c(Nc5ccc(CNS(=O)(=O)C6CC6)cc5)n4)ccc3C[C@@H]2O1 [Compound 8, 5-Chloro-N4-[4-[[N-(cyclopropylsulfonyl)amino]methyl]phenyl]-N2-[(3aR,8aS)-2-oxo-3,3a,8,8a-tetrahydro-2H-indeno[1,2-d]oxazol-5-yl]-2,4-pyrimidinediamine] | < 250
8 | CC(C)(C)NS(=O)(=O)c1cccc(Nc2nc(Nc3ccc4c(c3)[C@@H]3NC(=O)O[C@@H]3C4)ncc2Cl)c1 [Compound 14, 5-Chloro-N4-[3-[[(1,1-dimethylethyl)amino]sulfonyl]phenyl]-N2-[(3aS,8aR)-2-oxo-3,3a,8,8a-tetrahydro-2H-indeno[1,2-d]oxazol-5-yl]-2,4-pyrimidinediamine] | 500 to 1000
9 | Cc1cnc(Nc2ccc3c(c2)[C@H]2NC(=O)O[C@H]2C3)nc1Nc1ccc2c(c1)N(C)C(=O)C(C)(C)O2 [Compound 2, 5-Methyl-N2-[(3aR,8aS)-2-oxo-3,3a,8,8a-tetrahydro-2H-indeno[1,2-d]oxazol-5-yl]-N4-(2,2,4-trimethyl-3-oxo-benz[1,4]oxazin-6-yl)-2,4-pyrimidinediamine] | < 250
10 | Cc1cnc(Nc2ccc3c(c2)[C@@H]2NC(=O)O[C@@H]2C3)nc1Nc1ccc2c(c1)N(C)C(=O)C(C)(C)O2 [Compound 9, 5-Methyl-N2-[(3aS,8aR)-2-oxo-3,3a,8,8a-tetrahydro-2H-indeno[1,2-d]oxazol-5-yl]-N4-(2,2,4-trimethyl-3-oxo-benz[1,4]oxazin-6-yl)-2,4-pyrimidinediamine] | 250 to 500
11 | CN1C(=O)C(C)(C)Oc2ccc(Nc3nc(Nc4ccc5c(c4)[C@@H]4NC(=O)O[C@@H]4C5)ncc3Cl)cc21 [Compound 10, 5-Chloro-N2-[(3aS,8aR)-2-oxo-3,3a,8,8a-tetrahydro-2H-indeno[1,2-d]oxazol-5-yl]-N4-(2,2,4-trimethyl-3-oxo-benz[1,4]oxazin-6-yl)-2,4-pyrimidinediamine] | < 250
12 | Cc1cnc(Nc2ccc3c(c2)[C@@H]2NC(=O)O[C@@H]2C3)nc1Nc1ccc2c(c1)NC(=O)C(C)(C)O2 [Compound 13, N4-(2,2-Dimethyl-3-oxo-4H-benz[1,4]oxazin-6-yl)-5-methyl-N2-[(3aS,8aR)-2-oxo-3,3a,8,8a-tetrahydro-2H-indeno[1,2-d]oxazol-5-yl]-2,4-pyrimidinediamine] | 1000 to 5000

The remaining lines, values ahead:

Row | GI50 [nM] | Structure (SMILES)
13 | ≥ 5000 | O=C1N[C@H]2c3cc(Nc4ncc(Cl)c(Nc5cccc6c5CCC6)n4)ccc3CC2O1 (some centres unmarked) [Compound 19]
14 | 1000 to 5000 | O=C1N[C@H]2c3cc(Nc4ncc(F)c(Nc5ccc(OCc6ccccn6)cc5)n4)ccc3C[C@H]2O1 [Compound 30, 5-Fluoro-N2-[(3aS,8aR)-2-oxo-3,3a,8,8a-tetrahydro-2H-indeno[1,2-d]oxazol-5-yl]-N4-[4-(pyridin-2-ylmethoxy)phenyl]-2,4-pyrimidinediamine]
15 | 250 to 500 | O=C1N[C@@H]2c3cc(Nc4ncc(Cl)c(Nc5cccc6c5CCCC6)n4)ccc3C[C@@H]2O1 [Compound 36, 5-Chloro-N2-[(3aR,8aS)-2-oxo-3,3a,8,8a-tetrahydro-2H-indeno[1,2-d]oxazol-5-yl]-N4-(5,6,7,8-tetrahydronaphthalen-1-yl)2,4-pyrimidinediamine]
16 | 250 to 500 | Cc1cnc(Nc2ccc3c(c2)[C@H]2NC(=O)O[C@H]2C3)nc1Nc1ccc(OCc2ccccn2)cc1 [Compound 27, 5-Methyl-N2-[(3aR,8aS)-2-oxo-3,3a,8,8a-tetrahydro-2H-indeno[1,2-d]oxazol-5-yl]-N4-[4-(pyridin-2-ylmethoxy)phenyl]-2,4-pyrimidinediamine]
17 | 250 to 500 | Cc1cnc(Nc2ccc3c(c2)[C@@H]2NC(=O)O[C@@H]2C3)nc1Nc1ccc(OCc2cccnc2)cc1 [Compound 32, 5-Methyl-N2-[(3aS,8aR)-2-oxo-3,3a,8,8a-tetrahydro-2H-indeno[1,2-d]oxazol-5-yl]-N4-[4-(pyridin-3-ylmethoxy)phenyl]-2,4-pyrimidinediamine]
18 | < 250 | Cc1cnc(Nc2ccc3c(c2)[C@H]2NC(=O)O[C@H]2C3)nc1Nc1cccc2c1CCCC2 [Compound 37, 5-Methyl-N2-[(3aR,8aS)-2-oxo-3,3a,8,8a-tetrahydro-2H-indeno[1,2-d]oxazol-5-yl]-N4-(5,6,7,8-tetrahydronaphthalen-1-yl)-2,4-pyrimidinediamine]
19 | 250 to 500 | O=C1N[C@H]2c3cc(Nc4ncc(F)c(Nc5ccc(CCc6ccncc6)cc5)n4)ccc3C[C@H]2O1 [Compound 33, 5-Fluoro-N2-[(3aS,8aR)-2-oxo-3,3a,8,8a-tetrahydro-2H-indeno[1,2-d]oxazol-5-yl]-N4-[4-[2-(pyridin-4-yl)ethyl]phenyl]-2,4-pyrimidinediamine]
20 | < 250 | Cc1cnc(Nc2ccc3c(c2)[C@@H]2NC(=O)O[C@@H]2C3)nc1Nc1cccc2c1CCC2 [Compound 20, N4-(Indan-4-yl]-5-methyl-N2-[(3aS,8aR)-2-oxo-3,3a,8,8a-tetrahydro-2H-indeno[1,2-d]oxazol-5-yl]-2,4-pyrimidinediamine]
21 | 1000 to 5000 | O=C1N[C@@H]2c3cc(Nc4ncc(F)c(Nc5ccc(OCc6ccccn6)cc5)n4)ccc3C[C@@H]2O1 [Compound 26, 5-Fluoro-N2-[(3aR,8aS)-2-oxo-3,3a,8,8a-tetrahydro-2H-indeno[1,2-d]oxazol-5-yl]-N4-[4-(pyridin-2-ylmethoxy)phenyl]-2,4-pyrimidinediamine]
22 | 250 to 500 | Cc1cnc(Nc2ccc3c(c2)[C@@H]2NC(=O)O[C@@H]2C3)nc1Nc1cccc2c1CCCC2 [Compound 22, 5-Methyl-N2-[(3aS,8aR)-2-oxo-3,3a,8,8a-tetrahydro-2H-indeno[1,2-d]oxazol-5-yl]-N4-(5,6,7,8-tetrahydronaphthalen-1-yl)-2,4-pyrimidinediamine]
23 | < 250 | Cc1cnc(Nc2ccc3c(c2)[C@H]2NC(=O)O[C@H]2C3)nc1Nc1cccc2c1CCC2 [Compound 35, N4-(Indan-4-yl]-5-methyl-N2-[(3aR,8aS)-2-oxo-3,3a,8,8a-tetrahydro-2H-indeno[1,2-d]oxazol-5-yl]-2,4-pyrimidinediamine]
24 | 1000 to 5000 | O=C1N[C@H]2c3cc(Nc4ncc(Cl)c(Nc5cccc6c5OCCO6)n4)ccc3C[C@H]2O1 [Compound 23, N4-(1,4-Benzodioxan-5-yl)-5-chloro-N2-[(3aS,8aR)-2-oxo-3,3a,8,8a-tetrahydro-2H-indeno[1,2-d]oxazol-5-yl]-2,4-pyrimidinediamine]
25 | < 250 | Cc1cnc(Nc2ccc3c(c2)[C@@H]2NC(=O)O[C@@H]2C3)nc1Nc1cccc2c1OCCO2 [Compound 24, N4-(1,4-Benzodioxan-5-yl)-5-methyl-N2-[(3aS,8aR)-2-oxo-3,3a,8,8a-tetrahydro-2H-indeno[1,2-d]oxazol-5-yl]-2,4-pyrimidinediamine]
26 | 1000 to 5000 | Cc1cc(CNS(=O)(=O)C2CC2)ccc1Nc1nc(Nc2ccc3c(c2)[C@@H]2NC(=O)OC2C3)ncc1C (some centres unmarked) [Compound 18]
